# Assay results: patent US9808511B2, “Method for treating alopecia with B-type natriuretic peptide” (IGISU Co., Ltd., priority 2011, dated 2017)
# Bridges are numbered along the chain shown (N, C = ends). Where no end group is shown, it is not given here.
# Legend:
# [1] = test system: androgenetic alopecia; test: Case tests: application to hair loss sites of androgenetic alopecia patients; assay type: in vivo, human
# Protocol: (§1) The test subjects were patients with alopecia areata, androgenetic alopecia, postpartum alopecia, female pattern alopecia, alopecia pityroides, and senile alopecia. Diagnosis and treatment of these test subjects were carried out by the present inventors as physicians.
# (§2) Clinical classification of alopecia was carried out in accordance with the Classification of the Japanese Dermatological Association, and evaluation of the severity of alopecia areata was carried out in accordance with the above-mentioned ‘USA Alopecia Areata Evaluation Guidelines’, the area of hair loss being classified using 6 grades of S0 to S5 and the hair loss site being classified using 3 grades of B0 to B2.
# In general, in order to confirm the effect of an external medicine in an individual case, a method involving separate left and right applications is desirable. […] With regard to the test of the preparation of the present invention, a preparatory test was carried out in accordance with the separate left and right applications method. However, taking into consideration medical ethics, the preparatory test in accordance with the separate left and right applications method was minimized, and when a preparatory test was not carried out, a therapeutic effect was evaluated by comparison between that before application and that after application.
# Prior to administration of the ANP gel, BNP gel, CNP gel, BNP ointment, and CNP ointment of the present invention, as is routine for dermatological diagnosis and treatment, the test subjects were interviewed regarding age, gender, history of disease, and family history of disease; when an allergic predisposition was suspected, a scratch test against the main allergens and an evaluation thereof were carried out.
# (§3) In order to carry out evaluation objectively, photographs before and after application of the NP preparation were recorded in all cases. Photographs of some of these cases are shown in the drawings.
# [2] = test system: alopecia areata; test: Case tests: application to bald areas of alopecia areata patients; assay type: in vivo, human; details: previous treatment of the test subject (history); one value per case
# Protocol: as §1, §2
# In general, in order to confirm the effect of an external medicine in an individual case, a method involving separate left and right applications is desirable. […] However, taking into consideration medical ethics, the preparatory test in accordance with the separate left and right applications method was minimized, and when a preparatory test was not carried out, a therapeutic effect was evaluated by comparison between that before application and that after application. […]
# (§4) In order to carry out evaluation objectively, photographs before and after application of the NP preparation were recorded in all cases. […]
# [3] = test system: cancer chemotherapy drug-induced alopecia; test: Case tests: application to hair loss sites of cancer chemotherapy drug-induced alopecia patients; assay type: in vivo, human
# [4] = test system: postpartum alopecia; test: Case tests: application to hair loss sites of postpartum alopecia patients; assay type: in vivo, human; details: case C18
# Protocol: as §1
# (§5) In general, in order to confirm the effect of an external medicine in an individual case, a method involving separate left and right applications is desirable. The separate left and right application method is a method in which, for example, an external medicine containing an active ingredient to be tested is applied to the left-hand side of an affected site, and an external medicine not containing the active ingredient is applied to the right-hand side, thus enabling a therapeutic effect to be confirmed. With regard to the test of the preparation of the present invention, a preparatory test was carried out in accordance with the separate left and right applications method. However, taking into consideration medical ethics, the preparatory test in accordance with the separate left and right applications method was minimized, and when a preparatory test was not carried out, a therapeutic effect was evaluated by comparison between that before application and that after application. […]
# as §4
# [5] = test system: female pattern alopecia; test: Case tests: application to thinning hair sites of female pattern alopecia patients; assay type: in vivo, human; details: previous treatment
# Protocol: as §1, §5, §4
# [6] = test system: seborrheic alopecia; test: Case tests: application to hair loss sites of seborrheic alopecia patients; assay type: in vivo, human; details: previous treatment
# [7] = test system: alopecia pityroides; test: Case tests: application to hair loss sites of alopecia pityroides patients; assay type: in vivo, human; details: previous treatment
# Protocol: as §1
# (§6) In general, in order to confirm the effect of an external medicine in an individual case, a method involving separate left and right applications is desirable. The separate left and right application method is a method in which, for example, an external medicine containing an active ingredient to be tested is applied to the left-hand side of an affected site, and an external medicine not containing the active ingredient is applied to the right-hand side, thus enabling a therapeutic effect to be confirmed. With regard to the test of the preparation of the present invention, a preparatory test was carried out in accordance with the separate left and right applications method. However, taking into consideration medical ethics, the preparatory test in accordance with the separate left and right applications method was minimized, and when a preparatory test was not carried out, a therapeutic effect was evaluated by comparison between that before application and that after application.
# Prior to administration of the ANP gel, BNP gel, CNP gel, BNP ointment, and CNP ointment of the present invention, as is routine for dermatological diagnosis and treatment, the test subjects were interviewed regarding age, gender, history of disease, and family history of disease; when an allergic predisposition was suspected, a scratch test against the main allergens and an evaluation thereof were carried out. In dermatological diagnosis and treatment, since there are a relatively large number of patients who have strong immunoreactivity toward a specific allergen, or a disease such as atopic dermatitis that is suspected to be related to having an allergic predisposition, in order to assist diagnosis, an interview with respect to family history and previous history of allergic disease in addition to gender and age, and a scratch test toward the main allergens, are widely carried out as simple supplemental test methods.
# Table 1 to Table 23 show the results of interviews with the test subjects and the results of the scratch test together with evaluation of the diagnostic findings and symptoms of the test subjects carried out in [Example 1] above.
# as §3
# [8] = test system: alopecia; test: Conclusions from case test results (all types of alopecia); assay type: in vivo, human; details: external application; for Adverse events resulting from application: all cases
# Protocol: as §1, §6, §3
# [9] = test system: androgenetic alopecia; details: androgenetic alopecia in males; cited from earlier work
# [10] = test system: thin head hair; details: applied twice a day after hair washing; cited from earlier work
# [11] = case C35, previous treatment (interview)
# [12] = previous treatment of the test subject (history), one value per case
molecule,measurement,setting,value
O=C(O)CCCC[C@@H]1SC[C@@H]2NC(=O)N[C@@H]21 [biotin],Effect of conventional preparation,"[1]; previous treatment, cases C39, C26, B29",there had been no effect
COc1ccc2cc1Oc1ccc(cc1)C[C@H]1c3c(cc4c(c3Oc3cc5c(cc3OC)CCN(C)[C@@H]5C2)OCO4)CCN1C [cepharanthin],Effect of cepharanthin,[2],there had been no therapeutic effect
same,Effect of cepharanthin,[3]; [11],No effect
COC(=O)CCC[N+](C)(C)C.[Cl-] [carpronium chloride],Effect of carpronium chloride,[2],No effect
same,Effect of carpronium chloride,[4]; previous treatment,No effect
same,Effect of conventional preparation,[4]; previous treatment for 5 months,thinning hair on the crown had not improved
same,Effect of carpronium chloride,[5]; case C19,No effect
same,Effect of conventional preparation,"[5]; cases B20, C19",there had been no effect
same,Effect of carpronium chloride,"[6]; case B21 (=A8, B8)",No effect
same,Effect of carpronium chloride,"[7]; case A13 (=A6, C3, C4)",No effect
same,Effect of carpronium chloride,[7]; case C30,No effect
same,Effect of carpronium chloride,[7]; case C33,No effect
same,Effect of carpronium chloride,[3]; [11],No effect
same,Effect of conventional preparation,"[3]; case C35, previous application for 6 months",There had been no effect
Nc1cc(N2CCCCC2)nc(N)[n+]1[O-] [minoxidil],Effect of minoxidil,"[1]; case B9, previous treatment",No effect
same,Effect of minoxidil,"[1]; case C16, previous treatment",No effect
same,Effect of minoxidil,[1]; [12],No effect
same,Effect of minoxidil,"[6]; case A12 (=A9, B11)",No effect
same,Effect of minoxidil,"[6]; case B22 (=A9, B11)",No effect
same,Effect of minoxidil,[7]; case B28,No effect
"CC[C@H](C)[C@@H]1NC(=O)[C@H](CCCNC(=N)N)NC(=O)[C@H](CC(=O)O)NC(=O)[C@H](CCSC)NC(=O)[C@H](CCCCN)NC(=O)[C@H](CCCNC(=N)N)NC(=O)CNC(=O)[C@H](Cc2ccccc2)NC(=O)[C@@H](NC(=O)CNC(=O)[C@H](CO)NC(=O)CNC(=O)[C@H](CCC(N)=O)NC(=O)[C@@H](NC(=O)[C@H](CCSC)NC(=O)[C@H](CCCCN)NC(=O)[C@@H]2CCCN2C(=O)[C@@H](N)CO)C(C)C)CSSC[C@@H](C(=O)N[C@@H](CCCCN)C(=O)N[C@H](C(=O)N[C@@H](CC(C)C)C(=O)N[C@@H](CCCN=C(N)N)C(=O)N[C@@H](CCCN=C(N)N)C(=O)N[C@@H](Cc2cnc[nH]2)C(=O)O)C(C)C)NC(=O)CNC(=O)[C@H](CC(C)C)NC(=O)CNC(=O)[C@H](CO)NC(=O)[C@H](CO)NC(=O)[C@H](CO)NC(=O)[C@H](CO)NC1=O [BNP, human BNP-32]",Adverse events resulting from application,[8],"did not exhibit any adverse events such as local symptoms of irritation, skin atrophy, or an itching sensation"
"CC[C@H](C)[C@@H]1NC(=O)[C@H](CCCNC(=N)N)NC(=O)[C@H](CC(=O)O)NC(=O)[C@H](CC(C)C)NC(=O)[C@H](CCCCN)NC(=O)[C@H](CC(C)C)NC(=O)CNC(=O)[C@H](Cc2ccccc2)NC(=O)[C@@H](NC(=O)CNC(=O)[C@H](CCCCN)NC(=O)[C@H](CO)NC(=O)[C@H](CC(C)C)NC(=O)CN)CSSC[C@@H](C(=O)O)NC(=O)CNC(=O)[C@H](CC(C)C)NC(=O)CNC(=O)[C@H](CO)NC(=O)[C@H](CCSC)NC(=O)[C@H](CO)NC(=O)CNC1=O [CNP, human CNP-22]",Adverse events resulting from application,[8],"did not exhibit any adverse events such as local symptoms of irritation, skin atrophy, or an itching sensation"
CC1(C)[C@@H](O)CC[C@]2(C)[C@H]3C(=O)C=C4[C@@H]5C[C@@](C)(C(=O)O)CC[C@]5(C)CC[C@@]4(C)[C@]3(C)CC[C@@H]12 [glycyrrhetinic acid],Effect of glycyrrhetinic acid,[1]; [12],there had been no effect
same,Effect of glycyrrhetinic acid,"[6]; case A12 (=A9, B11)",No effect
same,Effect of glycyrrhetinic acid,"[6]; case B22 (=A9, B11)",No effect
"CC(C)(C)NC(=O)[C@H]1CC[C@H]2[C@@H]3CC[C@H]4NC(=O)C=C[C@]4(C)[C@H]3CC[C@]12C [Finasteride, finasteride]",Proportion of patients improved,[9],about ¼
human ANP(1-28) (SLRRSSCFGGRMDRIGAQSGLGCNSFRY; disulfide 7-23; listed as Homo sapiens),"Therapeutic effect, conclusions from case test results",[8]; agent containing the peptide as an active ingredient,"effective only for alopecia in which there was no erythema, scale, seborrheic desquamation, etc. on the scalp"
same,Hair growth,[10],downy hair-like hair growth was observed on the frontal region with 1 week of ANP administration
